Laboratory results reported in US9439909B2, “Compositions and methods for sensitizing a neoplastic cell to radiation” (The Broad Institute, Inc., priority 2013, dated 2016).

What was measured:
[1] = Cellular viability of LC-1/SQSF cells after incubation with PI3K inhibitors; details: human, LC-1/SQSF cells stably expressing hNQO1-ARE-luc
Description: (§5) To test this, LC-1/SQSF cells were generated that stably express hNQO1-ARE-luc, containing cis-acting antioxidant response regulatory elements in the 5′-flanking region of NAD(P)H:quinone oxidoreductase (NQO1) (19), a gene induced by NRF2. Luciferase activity was measured in LC-1/SQSF, hNQO1-ARE-luc cells after incubation with LY 294002, NVP-BKM120, or TGX-221. […] Cellular viability was measured after incubation with LY 294002, NVP-BKM120, or TGX-221.

[2] = system: HCC15 cells; test: Clonogenic survival, HCC15 cells; type: cell-based, human; details: HCC15 (KEAP1 mutant), drug 24 hours before radiation
Description: (§1) Lung SqCC cell lines from the Cancer Cell Line Encyclopedia (CCLE) were authenticated per CCLE protocol (14) and grown in recommended media supplemented with 10% fetal bovine serum (Benchmark, Calif.) and 100 U/mL Penicillin, 100 μg/mL of Streptomycin, and 292 μg/mL L-Glutamine (Corning, N.Y.). All cultures were maintained at 37° C. in a humidified 5% CO2 atmosphere and tested to ensure absence of Mycoplasma. Plates were treated with 0 Gy (no radiation) or with 1-10 Gy of γ-radiation delivered at 0.91 Gy/min with a ^137Cs source using a GammaCell 40 Exactor (Best Theratronics; Ontario, Canada).
(§2) Cells were plated at appropriate dilutions, irradiated, and incubated for 10-14 days for colony formation. For chemical radiosensitization measurements, drug was added 24 hours prior to irradiation. Colonies were fixed in a solution of acetic acid and methanol 1:3 (v/v) and stained with 0.5% (w/v) crystal violet as previously described (15). A colony was defined to consist of 50 cells or greater. Colonies were counted digitally using ImageJ software as described (16). Integration of survival as a function of dose, or area under the curve, was calculated using Prism, GraphPad Software (La Jolla, Calif.).

[3] = system: SQ-1 cells; test: Clonogenic survival, SQ-1 cells; type: cell-based, human; details: SQ-1 (NFE2L2 and KEAP1 wild type), drug 24 hours before radiation
Description: as §1, §2

[4] = system: RERF-LC-AI cells; test: Clonogenic survival, RERF-LC-AI cells; type: cell-based, human
Description: as §1, §2

[5] = system: NRF2 protein; test: Immunoblot of NRF2 protein level in LC-1/SQSF cells; type: cell-based, human; details: for expression of endogenous mutant NRF2 compared with control shNTC: Doxycycline induction 24 hours
Description: (§3) Anti-NRF2 antibody (ab31163) was from Abcam (Cambridge, Mass.) (17). NVP-BKM120 and TGX-221 was from Selleck (Houston, Tex.). LY 294002 was from Cell Signaling Technology (Beverly, Mass.).
(§4) Construction of the retroviral expression vector of short hairpin RNA (shRNA) was carried out as described (18). The shRNA-targeted sequences were as follows: NRF2-1 shRNA, […] (SEQ ID NO: 1); NRF2-2 shRNA, […] (SEQ ID NO: 2). The control vector contains nontargeting shRNA sequence. The entry vectors were recombined with pLKO-Tet-ON-puro by LR reactions (Invitrogen, Carlsbad, Calif.), in accordance with the manufacturer's instructions. After infection (multiplicity of infection >1), cells were selected and maintained in the presence of 1 μg/ml puromycin.

[6] = system: NRF2 activity; test: hNQO1-ARE-luc luciferase reporter assay in LC-1/SQSF cells; type: cell-based, human; details: 24 hours
Description: LC-1/SQSF, hNQO1-ARE-luc cells were produced as follows. hQR41-ARE sequence (19) and firefly luciferase-PEST sequence (Promega, WI) was cloned into plenti6/BLOCK-iT-DEST lentivirus backbone (Invitrogen, NY) at the restriction sites of NcoI and Hind III. The engineered region was sequence verified and matched 100% of the expected sequences. The plasmid was stably infected to the LC-1/SQSF cell line, selected and maintained in 5 μg/ml Blasticidin in the recommended media.

[7] = system: LC-1/SQSF cells; test: Clonogenic survival, LC-1/SQSF cells; type: cell-based, human
Description: as §1, §2

[8] = system: A549 cells; test: Clonogenic survival, A549 cells; type: cell-based, human; details: A549, drug 24 hours before radiation
Description: as §1, §2

[9] = system: LC-1/SQSF cells; test: Cellular viability of LC-1/SQSF cells after incubation with PI3K inhibitors; details: LC-1/SQSF, 48 hours
Description: as §5

[10] = system: LC-1/SQSF cells
Description: as §5

[11] = system: NRF2 protein; test: Immunoblot of NRF2 protein level in RERF-LC-AI cells; type: cell-based, human; details: for NRF2 protein level / expression of endogenous NRF2 compared with control shNTC: RERF-LC-AI, Doxycycline induction 24 hours
Description: as §3, §4

O=c1cc(N2CCOCC2)oc2c(-c3ccccc3)cccc12 [LY 294002]
viability at 24 h [1]: > 90%

Nc1cc(C(F)(F)F)c(-c2cc(N3CCOCC3)nc(N3CCOCC3)n2)cn1 [NVP-BKM120, 5-(2,6-dimorpholinopyrimidin-4-yl)-4-(trifluoromethyl)pyridin-2-amine]
clonogenic survival with drug and radiation compared to control (0 Gy) [2]: synergistic decrement in clonogenic survival | synergy between drug and radiation, clonogenic survival [3]: significantly less synergy | synergy between drug and radiation, clonogenic survival ([4]; RERF-LC-AI (NFE2L2 and KEAP1 wild type), drug 24 hours before radiation): significantly less synergy | decrement in NRF2 protein level ([5]; 24 hours): significant decrement in NRF2 protein level | decrement in NRF2 activity (luciferase activity) [6]: significant decrement in NRF2 activity | clonogenic survival with drug and radiation compared to control (0 Gy) ([7]; LC-1/SQSF (NFE2L2 mutant), drug 24 hours before radiation): synergistic decrement in clonogenic survival | clonogenic survival with drug and radiation compared to control (0 Gy) [8]: synergistic decrement in clonogenic survival | decrement in cellular viability [9]: mirrored the effect on NRF2 activity | viability at 24 h [1]: > 90%

Cc1cc(C(C)Nc2ccccc2)c2nc(N3CCOCC3)cc(=O)n2c1 (stereo not drawn) [TGX-221]
viability [10]: > 90% | decrement in cellular viability [9]: mirrored the effect on NRF2 activity

CC(C)(C)c1cc(O)ccc1O [tBHQ, tert-Butylhydroquinone]
NRF2 stabilization (NRF2 protein level) ([11]; RERF-LC-AI cells, -/+ tBHQ): NRF2 stabilization

shNRF2-1: lentiviral-inducible NRF2-targeted shRNA, target sequence AGAGCAAGATTTAGATCATTT (SEQ ID NO: 1) (the letters are possibly those of the target site)
NRF2 protein level / expression of endogenous NRF2 compared with control shNTC [11]: minimal affect | expression of endogenous mutant NRF2 compared with control shNTC [5]: significantly reduced | sensitivity to radiation versus control shNTC cells, clonogenic survival ([7]; LC-1/SQSF, 2, 4, 6 Gy after Doxycycline 24 hours): more sensitive to radiation

shNRF2-2: lentiviral-inducible NRF2-targeted shRNA, target sequence GCTCCTACTGTGATGTGAAAT (SEQ ID NO: 2) (the letters are possibly those of the target site)
NRF2 protein level / expression of endogenous NRF2 compared with control shNTC [11]: significantly reduced | radiation sensitivity, clonogenic survival ([4]; RERF-LC-AI, 2, 4, 6 Gy after Doxycycline 24 hours): did not result in any observable decrease | clonogenic capacity ([4]; RERF-LC-AI, no radiation): did not result in any observable decrease | expression of endogenous mutant NRF2 compared with control shNTC [5]: significantly reduced | clonogenic capacity after lentiviral-induction ([7]; LC-1/SQSF, no radiation): significantly diminished clonogenic capacity
